{"source": "patent US6491894B1", "about": "“NGR receptor and methods of identifying tumor homing molecules that home to angiogenic vasculature using same” (The Burnham Institute, priority 1998, dated 2002)", "key": {"[1]": {"molecular_target": "CD13/aminopeptidase N (Homo sapiens, UniProt P15144)", "sequence (P15144 whole entry)": "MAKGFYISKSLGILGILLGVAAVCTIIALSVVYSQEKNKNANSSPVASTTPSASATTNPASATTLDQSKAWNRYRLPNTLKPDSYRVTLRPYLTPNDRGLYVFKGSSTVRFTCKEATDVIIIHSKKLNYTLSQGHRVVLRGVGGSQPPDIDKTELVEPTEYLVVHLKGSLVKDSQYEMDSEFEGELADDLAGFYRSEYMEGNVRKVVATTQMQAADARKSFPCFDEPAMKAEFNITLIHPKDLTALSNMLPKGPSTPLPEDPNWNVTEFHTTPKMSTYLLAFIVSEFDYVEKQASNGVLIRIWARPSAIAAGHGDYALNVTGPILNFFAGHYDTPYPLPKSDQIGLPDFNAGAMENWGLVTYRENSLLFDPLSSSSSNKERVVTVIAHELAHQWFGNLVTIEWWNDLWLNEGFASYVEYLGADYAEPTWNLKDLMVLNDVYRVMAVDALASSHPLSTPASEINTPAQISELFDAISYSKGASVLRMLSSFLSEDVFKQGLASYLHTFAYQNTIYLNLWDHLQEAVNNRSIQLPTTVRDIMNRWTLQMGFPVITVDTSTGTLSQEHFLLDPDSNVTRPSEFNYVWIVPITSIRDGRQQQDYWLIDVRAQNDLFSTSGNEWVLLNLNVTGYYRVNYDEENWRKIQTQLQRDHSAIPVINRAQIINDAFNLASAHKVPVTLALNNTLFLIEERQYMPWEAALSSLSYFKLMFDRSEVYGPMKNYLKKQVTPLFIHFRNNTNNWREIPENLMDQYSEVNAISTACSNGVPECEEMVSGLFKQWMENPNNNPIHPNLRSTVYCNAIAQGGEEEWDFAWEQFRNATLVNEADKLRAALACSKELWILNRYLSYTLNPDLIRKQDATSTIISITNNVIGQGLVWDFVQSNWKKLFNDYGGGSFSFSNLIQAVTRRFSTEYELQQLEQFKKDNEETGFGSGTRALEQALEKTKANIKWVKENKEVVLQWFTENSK", "conditions": "cited from earlier work"}, "[2]": {"molecular_target": "T1, CD13 (Gallus gallus, UniProt O57579)", "T1 construct": "CD13 is expressed in CAM angiogenic vasculature; from tissue; host or cells: chorioallantoic membrane of 10-day chicken embryos", "T1 sequence (O57579 1-972)": "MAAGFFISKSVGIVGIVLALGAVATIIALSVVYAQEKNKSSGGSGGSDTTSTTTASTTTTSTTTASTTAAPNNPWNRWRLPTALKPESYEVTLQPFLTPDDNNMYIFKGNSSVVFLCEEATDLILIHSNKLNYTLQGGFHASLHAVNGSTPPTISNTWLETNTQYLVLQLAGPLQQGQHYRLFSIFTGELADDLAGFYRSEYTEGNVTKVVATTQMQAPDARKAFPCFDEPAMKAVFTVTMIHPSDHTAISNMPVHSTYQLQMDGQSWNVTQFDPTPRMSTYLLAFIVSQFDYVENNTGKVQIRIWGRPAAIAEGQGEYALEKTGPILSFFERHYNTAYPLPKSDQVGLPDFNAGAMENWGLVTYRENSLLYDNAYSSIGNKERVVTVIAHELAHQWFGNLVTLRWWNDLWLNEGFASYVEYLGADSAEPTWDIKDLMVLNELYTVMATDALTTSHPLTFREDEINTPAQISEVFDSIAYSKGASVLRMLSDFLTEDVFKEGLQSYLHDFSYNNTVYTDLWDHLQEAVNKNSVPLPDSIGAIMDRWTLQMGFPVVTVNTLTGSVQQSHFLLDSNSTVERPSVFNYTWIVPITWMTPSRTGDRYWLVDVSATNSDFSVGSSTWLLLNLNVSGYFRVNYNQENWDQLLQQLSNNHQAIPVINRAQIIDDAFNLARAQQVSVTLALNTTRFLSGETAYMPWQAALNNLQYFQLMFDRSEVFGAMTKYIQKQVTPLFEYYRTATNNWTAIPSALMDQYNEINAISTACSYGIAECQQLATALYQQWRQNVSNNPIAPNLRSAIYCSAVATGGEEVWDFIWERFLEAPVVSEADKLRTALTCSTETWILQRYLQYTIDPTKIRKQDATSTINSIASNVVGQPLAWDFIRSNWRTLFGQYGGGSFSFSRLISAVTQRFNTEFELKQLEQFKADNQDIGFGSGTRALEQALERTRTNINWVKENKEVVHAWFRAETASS", "assay": "bFGF-induced angiogenesis in chicken chorioallantoic membrane (CAM)", "assay_type": "in vivo", "conditions": "topical, 3 days", "description": "Various treatments were applied topically, and, after 3 days, the filters and surrounding CAMs were resected and fixed in formalin.\nEach bar represents the mean number of vessels and standard errors from 8 CAMs on each group."}, "[3]": {"conditions": "high doses; cited from earlier work"}, "[4]": {"molecular_target": "T2, CD13/APN (Homo sapiens, UniProt P15144)", "T2 construct": "Experiments were performed using HL-60 cell extracts because they are known to express CD13/APN; endogenous in cells; host or cells: HL-60 cells (extract)", "T2 sequence (P15144 whole entry)": "as the sequence (P15144 whole entry) above", "assay": "Aminopeptidase enzymatic activity of immuno-isolated CD13 (Ala-pNA or Leu-pNA)", "assay_type": "biochemical", "conditions": "Kaposi's sarcoma tumor cell extracts", "method": "Given that the NGR sequence closely resembles a reverse RGD sequence, NGR-containing phage were tested to determine whether they would bind to CD13/aminopeptidase (CD13/APN). Kaposi's sarcoma tumor cell octylglucoside extracts were used as a source of CD13/APN. Aminopeptidase enzymatic activity was measured in these extracts utilizing Ala-pNA or Leu-pNA as substrates by monitoring the absorbance of the samples at 405 nm (Look et al., supra (1989); Taylor, supra (1993); Amoscato et al., supra (1989), each of which is incorporated herein by reference).\nThe CD13 antibody alone had no aminopeptidase activity."}, "[5]": {"molecular_target": "T2, CD13/APN", "assay": "Affinity chromatography of cell extracts on immobilized peptide", "assay_type": "binding", "conditions": "Molt-4/CD13, MDA-MB-435/CD13 or HL-60 cell extracts", "method": "To further characterize the interaction of CD13/APN with the NGR peptide, affinity chromatography on the CNGRC peptide was performed. The column was prepared by coupling the CNGRC peptide to SEPHAROSE (Pharmacia; Piscataway N.J.). Elution was effected with soluble CNGRC peptide. […] Extracts of Molt-4 and MDA-MB-435 cells transfected with CD13/APN were also characterized by using affinity chromatography, with extracts of the mock transfected counterparts used as negative controls.\nThe fractions were also analyzed for CD13 enzymatic activity using AlapNA as the substrate."}, "[6]": {"system": "MDA-MB-435 derived tumors", "assay": "In vivo targeting of phage to breast carcinoma xenografts (phage recovery)", "parameters": "species or system mouse", "method": "When the tumors attained a diameter of about 1 cm, phage expressing a specific RGD-containing peptide were administered to the tumor bearing mouse. Similar results to those discussed below also were obtained with nude mice bearing tumors formed by implantation of human melanoma C8161 cells or by implantation of mouse B16 melanoma cells.\n1×10^9 phage expressing the RGD-containing peptide, RGD-4C ([…]; SEQ ID NO:1; see, Koivunen et al., supra, 1995) or control (insertless) phage were injected intravenously (iv) into the mice and allowed to circulate for 4 min. The mice then were snap frozen or perfused through the heart while under anesthesia, and various organs, including tumor, brain and kidney, were removed and the phage present in the organs was quantitated (see U.S. Pat. No. 5,622,699; Pasqualini and Ruoslahti, supra, 1996).\nPhage displaying tumor homing peptides were recovered from breast carcinoma xenografts. […] The mean number of phage recovered from the tumor or control tissue (brain) and the standard error of the mean (SEM) from triplicate platings are shown in FIG. 1.\nAn insertless phage with a different selective marker (ampicillin instead of tetracycline) was co-injected with the NGR phage at the same input to assess specificity within the same tumor-bearing animal. The ratios were calculated using the number of co-injected control ampicillin-resistant phage recovered from the same tissues. The phage were quantitated from triplicate platings on tetracycline (the homing phage) or ampicillin (control phage) selective plates. Various additional control phage were injected separately into tumor-bearing mice. These controls included: fd-tet phage without insert; unselected phage library mixtures; phage selected and shown to home to other normal vascular beds; and phage displaying peptides that were unrelated to NGR. The RGD-4C ([…]; SEQ ID NO:1) phage served as a positive control."}, "[7]": {"molecular_target": "T3, CD13 (Homo sapiens, UniProt P15144)", "T3 sequence (P15144 whole entry)": "as the sequence (P15144 whole entry) above", "assay": "Phage binding to immobilized CD13", "parameters": "Kaposi's sarcoma tumor cell octylglucoside extracts were used as a source of CD13/APN; endogenous in cells; host or cells: Kaposi's sarcoma tumor cells (octylglucoside extract)", "conditions": "200 μg/well", "method": "In FIG. 4B, NGR-containing phage were assayed for the ability to bind CD13. […] Various phage were added to the wells at 2×10^9 transducing units (TU) per well. […] The data were expressed as means and standard errors from triplicate wells.\nThe data shown were expressed as means and standard errors from triplicate wells."}, "[8]": {"molecular_target": "T3, CD13", "assay": "Phage binding assays with CD13/APN-transfected cells", "assay_type": "cell-based", "parameters": "expressed in transfected cells; host or cells: Molt-4 human T cell leukemia", "conditions": "250 and 500 μg/ml", "method": "The CNGRC phage binds specifically to cells transfected with CD13. […] Briefly, mock transfected Molt-4 cells (“Molt-4/mock”) and cells transfected with CD13 (“Molt-4/CD13”) were incubated with CNGRC (SEQ ID NO:8) phage or with control Fd phage lacking an insert (2×10^9 transducing units (TU) per sample). Synthetic peptides, CNGRC (SEQ ID NO:8) or the negative control CARAC (SEQ ID NO:221), were pre-incubated with the cells at 250 and 500 μg/ml. After extensive washing, bound phage were quantitated by infection of bacteria as described above."}, "[9]": {"system": "MDA-MB-435 breast carcinoma", "assay": "Tumor therapy of mice bearing MDA-MB-435 breast carcinoma", "assay_type": "in vivo, mouse", "method": "Female 2-month old Balb c nu/nu mice (Harlan Sprague Dawley; San Diego Calif.) were used for these studies and were cared for according to the Burnham Institute animal facility guidelines. […] Tumors were allowed to grow to a size of about 1 cm^3 (about 5% of the mouse's body weight) before starting the treatment experiments, except for the toxicity experiments as discussed below.\nWeekly doxorubicin/peptide conjugate or control treatments (5 μg/mouse/week of doxorubicin-equivalent) were administered intravenously. In some experiments, as indicated, a dose of 30 μg/mouse was administered every 3 weeks. […] As an additional control, in some experiments the tumor homing peptide was mixed with doxorubicin, without linking, and the mixture was administered to tumor bearing mice.\nMice were anesthetized with a tribromoethanol-based anesthetic mixture (AVERTIN; Papaioannou and Fox, Lab. Anim. 43:189-192 (1993)) before each treatment. Anesthetization facilitated the tail vein injections (final volume, 200 μl) and allowed precise serial three dimensional tumor size measurements. Tumor volume calculations were based on the equation for the volume of an ovaloid: V=4/3(nabc), where a, b, and c are ½ of the measured diameters in each of the three dimensions.\nBriefly, mice with size-matched tumors (˜1000 mm^3) were randomized into four treatment groups (six animals per group): vehicle only, free doxorubicin, doxorubicin-control peptide, and doxorubicin-CNGRC (SEQ ID NO:8). Mice were treated at 5 μg/mouse/week of doxorubicin-equivalent, and the difference in tumor volumes between day 1 and day 28 determined (FIG. 11A)."}, "[10]": {"system": "Hodgkin's lymphoma", "assay": "Treatment of mice bearing Hodgkin's lymphoma", "assay_type": "in vivo", "conditions": "two doses, 40 μg/mouse doxorubicin equivalent, tumors ~5000 mm^3", "method": "Mice bearing large (˜5000 mm^3) Hodgkin's lymphoma (eight animals per group) were randomized to receive two doses of free doxorubicin plus unconjugated CNGRC peptide or doxorubicin-CNGRC (SEQ ID NO:8) conjugate at 40 μg/mouse of doxorubicin equivalent."}, "[11]": {"assay": "Acute toxicity in mice bearing extremely large tumors", "conditions": "mouse, in vivo"}, "[12]": {"conditions": "5 μg/mouse/week doxorubicin-equivalent iv"}}, "note": "Where no end group is shown, it is not given here."}
{"molecule": "CC(C)C[C@H](NC(=O)[C@@H](O)[C@H](N)Cc1ccccc1)C(=O)O", "note": "[bestatin]", "values": [{"measurement": "block of cell-surface CD13/aminopeptidase N enzymatic activity", "setting": "[1]", "result": "potently blocked"}, {"measurement": "effect on bFGF-induced angiogenesis in CAM", "setting": "[2]", "result": "suppress bFGF-induced angiogenesis"}, {"measurement": "effect on metastasis", "setting": "[3]", "result": "marked suppression of experimental and spontaneous metastasis"}]}
{"molecule": "c1cnc2c(c1)ccc1cccnc12", "note": "[o-phenanthroline]", "values": [{"measurement": "block of cell-surface CD13/aminopeptidase N enzymatic activity", "setting": "[1]", "result": "potently blocked"}, {"measurement": "inhibition of aminopeptidase activity captured by CD13 antibody", "setting": "[4]", "result": "inhibited the activity"}]}
{"molecule": "CNGRC", "values": [{"measurement": "elution of CD13/APN from the CNGRC column by soluble peptide", "setting": "[5]", "result": "yielded fractions containing functional CD13/APN"}, {"measurement": "inhibition of accumulation of the two other NGR-displaying phage by co-injected soluble peptide", "setting": "[6]; breast carcinoma xenografts", "result": "also inhibited the accumulation"}, {"measurement": "inhibition of tumor homing of CNGRCVSGCAGRC (NGR) phage by co-injected soluble peptide", "setting": "[6]; breast carcinoma xenografts", "result": "inhibited the accumulation"}, {"measurement": "inhibition of tumor homing of RGD-4C phage by co-injected soluble peptide", "setting": "[6]; increasing amounts of peptide", "result": "not inhibited"}, {"measurement": "inhibition of NGR-phage binding to CD13 by peptide", "setting": "[7]", "result": "Inhibition"}, {"measurement": "inhibition of CNGRC phage binding to CD13 transfected cells by synthetic peptide", "setting": "[8]", "result": "blocked"}]}
{"molecule": "doxorubicin/CNGRC (not fully specified (bridges); cysteine pairing not given here; also: doxorubicin conjugate)", "values": [{"measurement": "survival", "setting": "[9]; [12]", "result": "A marked effect on survival"}, {"measurement": "tumor size versus doxorubicin control", "setting": "[9]; [12]", "result": "significantly smaller"}, {"measurement": "survival versus doxorubicin alone", "setting": "[9]; 5 μg/mouse/week or single dose 200 μg/mouse doxorubicin equivalent", "result": "lived longer"}, {"measurement": "cures", "setting": "[9]; mouse, in vivo", "result": "Cures were also observed"}, {"measurement": "effect on tumor growth", "setting": "[9]; relative to vehicle alone", "result": "almost completely suppressed tumor growth"}, {"measurement": "survival versus unconjugated peptide doxorubicin mixture", "setting": "[10]", "result": "lived longer"}, {"measurement": "toxicity compared with free doxorubicin", "setting": "[11]", "result": "less toxic than free doxorubicin"}]}
